The nature of data set [1]: Solubility analysis: clarity by optical density at 850 nm (OD850) after reconstitution. The format is physicochemical. The conditions noted are these: lyophilized, reconstituted in DPBS pH 7.0, 1 mM. The protocol:
FIG. 4. Solubility of dye-chloroalkyl ligand conjugates following lyophilization in the presence of various excipients and reconstitution in DPBS pH 7.0.
Vials of lyophilized Chloroalkyl-JANELIA FLUOR 552 (CA-JF 552) and Chloroalkyl-JANELIA FLUOR 669 (CA-JF 669) formulated prior to lyophilization with various excipients were separately dissolved in 100 μL aqueous buffer to a final 1 mM concentration. 70 μl of the CA-JF 552 and CA-JF 669 solutions were then transferred to wells of a transparent 96-well plate for clarity analysis using Optical Density absorbance measurements at 850 nm [Bandwidth 3.5 nm] (OD850) on Tecan Spark plate reader (FIGS. 4 and 5). Target absorbance limit for clarity measurements was determined using a known turbidity sample of material similarly formulated with poloxamer to assess solubility of the ligand.
A clarity target of <0.1 was utilized.

A short description of data set [2]: Reconstitution of lyophilized P-407 formulated cakes in 100 μL DPBS (visual appearance). The format is physicochemical. The conditions noted are these: 100 nmols ligand, 100 μL DPBS (JF-552: after 4 h). On the procedure: The 1 μmol JF Dye HaloTag Ligand (JF-669 or JF-552) was dissolved in ca. 3.5 mL EtOH, followed by transferring the resulting solution to the melted P-407. The resulting mixture was rotated at ca. 65° C. to afford a homogeneous solution. […]

Data on 2 molecules can be found in patent US20240343906A1, “POLOXAMER-STABILIZED REAGENTS” (Promega Corporation, priority 2023, published 2024).

Chloroalkyl-JANELIA FLUOR 552 [JF-552]: the “clarity (OD850) versus clarity target <0.1” value in data set [1] (excipient cyclodextrin) and in data set [1] (excipient pullulan) was “unable to hit clarity target” each time. Besides, the figures for the appearance after reconstitution entry in data set [2] (3-mg-P407 formulation) and in data set [2] (9-mg-P407 formulation) were “hazy suspension” and “clear solution”, respectively.

`C[Si]1(C)C2=CC(=[N+]3CCC3)C=CC2=C(c2c(F)c(C(=O)NCCOCCOCCCCCCCl)c(F)c(F)c2C(=O)[O-])c2ccc(N3CCC3)cc21` [JF-669, Chloroalkyl-JANELIA FLUOR 669]: the “clarity (OD850) versus clarity target <0.1” value in data set [1] (excipient cyclodextrin) and in data set [1] (excipient pullulan) was “unable to hit clarity target” in each case. Besides, the appearance after reconstitution result in data set [2] (3-mg-P407 formulation) is “hazy suspension”; in data set [2] (9-mg-P407 formulation), “clear solution”.
